Patent US20240299562A1 (priority 2020, published 2024)
Values joined by “and” are separate entries in the source; they are usually repeats but may differ in a detail not shown here. Equal entries are not always repeated. Where two headings read alike, the source gives them in different places. Values belong to the compound of their own block, whether it stands above or below them. *1 amine or outer side, *2 acyl side, *3 side chain or, on linkers, in order; H or OH if unused. Where a SMILES comes first, the peptide text is derived from it. [ ]: non-standard residue; d: D form. The star is where a group is joined. X1 = CO[C@@H](C1CCCN1[*:1])[C@@H](C)C(=O)[*:2]; Dil = CC[C@H](C)[C@H](NC)[C@@H](CC(=O)O)OC; PABC = O=C(OCc1ccc(N[*:1])cc1)[*:2]; Phosphonoacetyl = O=C(CP(=O)(O)O)*; X2 = C[C@@H](N*)[C@@H](O)c1ccccc1; NMeV = CN[C@H](C(=O)O)C(C)C

Legend:
[1] = system: hiPSC-derived astrocytes (iAstro); experiment: WST-1 cell viability, hiPSC-derived astrocytes (iAstro); assay type: cell-based, human; conditions: iAstro normal astrocytes, 72 hrs; for IC50: WST-1 (Table 4), read-out: Absolute IC50; for Maximal efficacy: WST-1 (Table 5)
Method: (§1) All commercial cell lines were purchased at ATCC (LGC Standards SARL, France). Cells were seeded in 96-well plates according to their optimal seeding density, varying between 5.000 and 10.000 cells/well. After attachment overnight, 10-point serial titrations (1:5) were prepared in their equivalent complete media as recommended by ATCC, starting from the 10 mM stock solutions. For doxorubicin comprising prodrugs dilutions started from 100 μM, while for the parent compound doxorubicin dilutions started at 10 μM. […] Seventy-two hours later, compounds were removed together with the supernatants and cells were washed once with PBS to remove excess drugs.
(§2) The WST-1 assay for cell proliferation and viability (Roche, Switzerland) was performed according to manufacturer's protocol. Absorbances were measured at 4 hrs using a Perkin Elmer Ensight multiplate reader, equipped with Kaleido 2.0 software (Perkin Elmer, USA). Cell viability was expressed as a percentage compared to non-treated cells. Absolute IC50 values were extrapolated from a non-linear fitting following the Sigmoidal-4PL regression method using Graphpad Prism 7.0. Likewise, maximal efficacy was determined as 100% minus the cell viability determined when cells are incubated in the presence of a compound. For instance, if 20% of the cells survive incubation in the presence of a compound, then the maximal efficacy of that compound is 100%-20%=80%.
(§3) Selectivity indices (SI) were defined as the ratio of the concentration of drug required to kill 50% of the cells in normal (control, non-cancer) cells, divided by the concentration required to exert the same efficacy in tumor cells: SI=IC50 (control cell)/IC50 (cancer cell), or SI=^HME-1IC50/cancer IC50.
hiPSC-derived astrocytes were purchased from Tempo Biosciences (iAstro™). Prior to use, six-well plates were coated with 1 ml GFR Matrigel (1:100˜0.1 mg/ml, Corning #356231) and allowed to polymerize at 37° C. overnight. Three days before assaying, cells were defrosted and seeded onto the GFR Matrigel in iAstro medium, and allowed to recover from defrosting for 48 hrs. The recovery was aided using RevitaCell™ Supplement during the first 24 hrs. After morphological inspection, cells were transferred to 96-well plates and 4-well microscopy vessels (Millipore), coated with Poly-L-lysine (50 μg/ml, P2533, Sigma Aldrich) and mouse laminin (4 ng/ml, L2020, Sigma Aldrich), using StemPro Accutase reagent (Invitrogen). Following overnight recovery, iAstro's were exposed to the same treatment protocol described above.

[2] = system: U87 MG glioblastoma cells subcutaneously implanted in nude NMRI mice; experiment: In vivo activity of PhAc-ALLP-PABC-MMAE on U87 MG glioblastoma xenograft; set-up: species or system mouse; conditions: 2 mg/kg iv, once per week
Method: The in vivo efficacy of PhAc-ALLP-PABC-MMAE was tested in a mouse GBM model. U87 MG glioblastoma cells were subcutaneously (SC) implanted in nude NMRI mice. In total, 24 adult (9-10 weeks old) nude female NMRI mice (Janvier, France) were subjected to SC tumor cell grafting in the right flank. In total, 5×10^6 U87 MG cells resuspended in PBS plus Matrigel (1:1) were injected in 200 uL final volume. As soon as the tumors were palpable and reached the volume of 200 mm3 the treatment was started. At day zero, mice were randomly divided into 3 groups, based on the tumor volume, in order to have the following experimental sub-cohorts: • control group receiving the vehicle (PBS pH7.2) with a dose of 5 ml/kg, intravenously (iv), once per week (QW); • PhAc-ALLP-PABC-MMAE (2 mg/kg iv, QW); • MMAE (0.9 mg/kg iv, QW).
(§4) Treatments were performed once per week for a total of four tail vein administrations/injections (on days 1, 7, 14 and 21). One extra week of observation followed the active treatment phase. During the experiment, tumor volume was measured two times a week and was assessed three-dimensionally with a digital caliper (Mitutoyo, Illinois) using the following formula:
V=4/3π×[(d/2)^2×(D/2)], where d is the minor tumor axis and D is the major tumor axis.

LS 174T cells = experiment: WST-1 cell viability, LS 174T colorectal cancer cells; assay type: cell-based; conditions: for SI = HME-1 IC50/cancer IC50: LS 174T (CrC) vs HME-1 (Table 3); for IC50: WST-1 (Table 1), read-out: Absolute IC50
Method: as §1, §2, §3

MDA-MB-468 cells = experiment: WST-1 cell viability, MDA-MB-468 triple negative breast cancer cells; assay type: cell-based; conditions: for SI = HME-1 IC50/cancer IC50: MDA-MB-468 (TNBC) vs HME-1 (Table 3); for IC50: WST-1 (Table 1), read-out: Absolute IC50
Method: as §1, §2, §3

NCI-H292 cells = experiment: WST-1 cell viability, NCI-H292 lung cancer cells; assay type: cell-based; conditions: for SI = HME-1 IC50/cancer IC50: NCI-H292 (NSCLC) vs HME-1 (Table 3); for IC50: WST-1 (Table 1), read-out: Absolute IC50
Method: as §1, §2, §3

[3] = system: LS-174T colorectal tumor cells xenografted in Nude NMRI mice; experiment: In vivo activity on LS-174T colorectal cancer xenograft; set-up: species or system mouse; conditions: twice per week
Method: The in vivo efficacy of PhAc-ALLP-Dox was tested in a mouse model of colorectal cancer. LS-174T colorectal tumor cells were xenografted in Nude NMRI mice. In total, 30 adult (9-10 weeks old) nude female NMRI mice (Janvier, France) were subjected to subcutaneous (SC) tumor cell grafting in the right flank. In total, 2×10^6 LS-174T cells resuspended in PBS were injected in 200 uL final volume. As soon as the tumors were palpable and reached the volume of 200 mm3 the treatment was started. […]
as §4, with “twice” for “once”, “4, 7” for “7, 14”, “10). […]” for “21). One extra week of observation followed the active treatment phase.”, “formula: […]” for “formula:”
Tumor growth inhibition (TGI) expressed as percentage vs control was calculated as follows: % TGI=(1−{Tt/T0/Ct/C0}/1−{C0/Ct})×100 where Tt and T0 are the individual tumor volume of treated mouse X at times t and 0 respectively, Ct and C0 are the mean tumor volume of the control group at times t and 0 respectively.

cancer cell lines = experiment: In vitro potency and selectivity across a variety of cancer indications (WST-1); assay type: cell-based; conditions: 72 hrs
Method: as §1
as §2, with “For instance, if 20% of the cells survive incubation in the presence of a compound, then the maximal efficacy of that compound is 100%-20%=80%.” left out

SMILES: CC[C@H](C)[C@@H]([C@@H](CC(=O)N1CCCC1[C@H](OC)[C@@H](C)C(=O)N[C@H](C)[C@@H](O)c1ccccc1)OC)N(C)C(=O)[C@@H](NC(=O)[C@H](C(C)C)N(C)C(=O)OCc1ccc(NC(=O)[C@@H]2CCCN2C(=O)[C@H](CC(C)C)NC(=O)[C@H](CC(C)C)NC(=O)[C@H](C)NC(=O)CP(=O)(O)O)cc1)C(C)C (stereo partly drawn) [PhAc-ALLP-PABC-MMAE] (Phosphonoacetyl-ALLP[PABC][NMeV]V[Dil][X1]-X2)
- IC50 [1]: > 500 nM
- Maximal efficacy [1]: 2% and 1.7%
- Macroscopical toxicity [2]: without any hint of macroscopical sign of toxicity
- Tumor volume compared to the untreated control group ([2]; four administrations): importantly reduced the tumor volume

SMILES: COc1cccc2c1C(=O)c1c(O)c3c(c(O)c1C2=O)C[C@@](O)(C(=O)CO)C[C@@H]3O[C@H]1C[C@H](NC(=O)[C@@H]2CCCN2C(=O)[C@H](CC(C)C)NC(=O)[C@H](CC(C)C)NC(=O)[C@H](C)NC(=O)CP(=O)(O)O)[C@H](O)[C@H](C)O1 [PhAc-ALLP-Dox, PhAc-ALLP-Doxorubicin] (HELM PEPTIDE1{[O=C(CP(=O)(O)O)[*:2]].A.L.L.P.[COc1cccc2c1C(=O)c1c(O)c3c(c(O)c1C2=O)C[C@@](O)(C(=O)CO)C[C@@H]3O[C@H]1C[C@H](N[*:1])[C@H](O)[C@H](C)O1]}$$$$V2.0)
- SI = HME-1 IC50/cancer IC50 (LS 174T cells): 1514.9
- IC50 (LS 174T cells; LS 174T (CrC), 72 hrs): 20 nM
- Maximal efficacy, cytotoxicity (%) at 100 μM (LS 174T cells; LS 174T (CrC), 72 hrs, WST-1 (Table 2)): 54.86%
- SI = HME-1 IC50/cancer IC50 (MDA-MB-468 cells): 20.94
- IC50 (MDA-MB-468 cells; MDA-MB-468 (TNBC), 72 hrs): 1760 nM
- Maximal efficacy, cytotoxicity (%) at 100 μM (MDA-MB-468 cells; MDA-MB-468 (TNBC), 72 hrs, WST-1 (Table 2)): 87.18%
- SI = HME-1 IC50/cancer IC50 (NCI-H292 cells): 6.30
- IC50 (NCI-H292 cells; NCI-H292 (NSCLC), 72 hrs): 5860 nM
- Maximal efficacy, cytotoxicity (%) at 100 μM (NCI-H292 cells; NCI-H292 (NSCLC), 72 hrs, WST-1 (Table 2)): 55.15%
- IC50 [1]: 20300 nM
- Maximal efficacy [1]: 68.5%
- Tolerability ([3]; 10 mg/kg and 30 mg/kg iv): mice did tolerate both doses
- Tumor volume compared to the untreated control group ([3]; 30 mg/kg iv, four tail vein administrations): significantly reduced the tumor volume
- Potency range against cancer cells (cancer cell lines): within the micromolar range

- IC50 (LS 174T cells; Homo sapiens, LS174T, LS 174T (CrC), 72 hrs): 10 nM
- SI = HME-1 IC50/cancer IC50 (LS 174T cells): 4.47
- IC50 (MDA-MB-468 cells; Homo sapiens, MDA-MB-468 (TNBC), 72 hrs): < 10 nM
- SI = HME-1 IC50/cancer IC50 (MDA-MB-468 cells): 12.64
- IC50 (NCI-H292 cells; Homo sapiens, NCI-H292 (NSCLC), 72 hrs): 30 nM
- SI = HME-1 IC50/cancer IC50 (NCI-H292 cells): 1.62
SMILES: COc1cccc2c1C(=O)c1c(O)c3c(c(O)c1C2=O)C[C@@](O)(C(=O)CO)C[C@@H]3O[C@H]1C[C@H](N)[C@H](O)[C@H](C)O1 [Doxorubicin, reference compound]
- cytotoxicity at 100 µM (LS 174T cells; Homo sapiens, LS174T, LS 174T (CrC), 72 hrs, WST-1 (Table 2), read-out: Maximal efficacy, cytotoxicity (%) at 100 μM): 93.7%
- cytotoxicity at 100 µM (MDA-MB-468 cells; Homo sapiens, MDA-MB-468 (TNBC), 72 hrs, WST-1 (Table 2), read-out: Maximal efficacy, cytotoxicity (%) at 100 μM): 95.5%
- cytotoxicity at 100 µM (NCI-H292 cells; Homo sapiens, NCI-H292 (NSCLC), 72 hrs, WST-1 (Table 2), read-out: Maximal efficacy, cytotoxicity (%) at 100 μM): 90.4%
